# In patent publication US10064885B2, “Metabolic gene, enzyme, and flux targets for cancer therapy” (Massachusetts Institute of Technology, priority 2010, dated 2018):
# Key:
# Assay type in all cases: cell-based, human
# A549 cells = assay: Reductive glutamine metabolism by isotopic labeling and GC/MS in A549 cells expressing shRNAs; settings: [1-13C]glutamine
# Protocol: (§1) Cell Culture, Isotopic Labeling, and Hypoxia. All cell lines were cultured in Dulbecco's Modified Eagle Medium (DMEM; Mediatech) containing 10% fetal bovine serum (FBS; Invitrogen) and 100 U/ml penicillin/streptomycin (P/S; Mediatech) unless otherwise mentioned. Cell lines were obtained from ATCC unless otherwise noted. The VC3 glioma cell line was provided by Tim Lautenschlaeger (Ohio State University), MDA-MB-231 and HCT116 cell lines were provided by Ferdinando Chiaradonna (University of Milano-Bicocca), MRC5 cells were provided by Stephen Lippard (MIT), SN12C, ACHN, and 786-O cells were provided by Kevin Courtney and Lew Cantley (Harvard Medical School), and MCF10A cells were provided by Joan Brugge (Harvard Medical School), and Huh7 cells were provided by Mike Hemann (MIT). MCF10A cells were cultured in custom DMEM/F12 (Hyclone) containing 5% horse serum, 20 ng/ml EGF, 10 μg/ml insulin, 100 ng/ml cholera toxin, 0.5 mg/ml hydrocortisone, 100 U/ml penicillin/streptomycin, and labeled/unlabeled glucose and glutamine at 18 mM and 2.5 mM, respectively. PRC3, WT8, pTV, and pTR cell lines were subcloned from the 786-O cell line as previously described (42, 43). For isotopic labeling experiments, cells were cultured in 6 well plates in glucose- and glutamine-free DMEM (Sigma) containing 10% dialyzed FBS (Invitrogen), 100 U/ml P/S, naturally labeled glucose or glutamine, and the appropriate tracer, including [U-^13C5]glutamine (Isotec), [5-^13C]glutamine (C/D/N Isotopes), [1-^13C]glutamine, [U-^13C6]glucose, [1,2-^13C2]glucose (all from Cambridge Isotope Labs). Steady state labeling of organic and amino acids was accomplished by culturing subconfluent cells in tracer medium for 24 hours. […] The internal gas content was monitored using Fyrite gas analyzers (Bacharach) for CO2 and O2. […]
# (§2) Metabolite Extraction and Gas Chromatography/Mass Spectrometry (GC/MS) Analysis. […] In some ISA experiments, cells were trypsinized, counted, and pelleted prior to lipid extraction as described above. […]
# HCT116 colon carcinoma = assay: Reductive carboxylation by [1-13C]glutamine labeling and GC/MS in HCT116 cells expressing shRNAs
# Protocol: as §1, §2
# [1] = tested on: MDA-MB-231 breast carcinoma; assay: Reductive carboxylation by [1-13C]glutamine labeling and GC/MS in MDA-MB-231 cells expressing shRNAs
# Protocol: as §1, §2
sequence,measurement,setting,value
"CCGGGTGGACATCCAGCTAAAGTATCTCGAGATACTTTAGCTGGATGTCCACTTT TT (CCGGGTGGACATCCAGCTAAAGTATCTCGAGATACTTTAGCTGGATGTCCACTTTTT; expressed or natural sequence) [IDH2 shRNA, pLKO.1 lentiviral vector shRNA targeting IDH2]",reductive carboxylation (M1 label from [1-13C]glutamine),A549 cells,does not affect reductive carboxylation flux
same,reductive carboxylation flux (M1 label from [1-13C]glutamine),HCT116 colon carcinoma,does not affect reductive carboxylation flux
same,reductive carboxylation flux (M1 label from [1-13C]glutamine),[1],does not affect reductive carboxylation flux
